Reference: patent US8288433B2, “Diazeniumdiolate compounds, a process for their preparation and pharmaceutical compositions containing them” (Les Laboratoires Servier, priority 2007, dated 2012)

Experiments:
conscious Wistar rats = experiment: Diuretic effect in vivo, urine volume in conscious rats; conditions: oral dose of 10 mg/kg, urine volume after 6 hours, relative to control group
Procedure: The diuretic effect is tested on conscious Wistar rats. The animals are subjected to fasting for 18 h before the experiment and put on a diet of water 90 minutes before the experiment. The product under test is then administered orally by force-feeding, the rat is placed in a metabolism cage and the volume of urine is measured after 6 hours. The volume is expressed in relation to the volume measured in a control group of rats.

[1] = test system: Aorta rings without endothelium; experiment: NO-donor activity in vitro, relaxation of noradrenaline-contracted aorta rings; conditions: aorta rings without endothelium contracted by noradrenaline (0.1-0.3 μM); read-out: IC50 (relaxant effect)
Procedure: Aorta rings without endothelium are used. After a first contraction induced by 60 mM KCl to characterise the sensitivity of the ring, and washing, a stable contraction is induced by noradrenaline (0.1-0.3 μM) in the presence or absence of ODQ. A cumulative concentration series is applied and the activity of the product under test is calculated by an IC50 (dose that inhibits the maximum effect by 50%).

[2] = test system: SD rats anaesthetised with pentobarbital; experiment: NO-donor activity in vivo, reduction of arterial pressure in anaesthetised rats; conditions: i.v. dose of 100 μg/kg
Procedure: The NO-donor effect of the compound is evaluated by the reduction in pressure caused in SD rats anaesthetised with pentobarbital. After stabilisation of the arterial pressure, the product under test is administered i.v. in increasing doses.

Compound	increase of the excretion of urine (conscious Wistar rats)	IC50 [1]	reduction of the arterial pressure [2]
CCN(CC)/[N+]([O-])=N/OCOC(=O)c1cccc(CNS(=O)(=O)c2cc(C(=O)NN3c4ccc([N+](=O)[O-])cc4CC3C)ccc2Cl)c1 (stereo not drawn) [Example 1]	108%	120 nM	56%
CCN(CC)/[N+]([O-])=N/OCOC(=O)c1ccc(CNS(=O)(=O)c2cc(C(=O)NN3c4ccccc4C[C@H]3C)ccc2Cl)cc1 [Example 10, ({[(1Z)-2,2-diethyl-1-oxidohydrazono]amino}oxy)methyl 4-({[(2-chloro-5-{[(2R)-2-methyl-2,3-dihydro-1H-indol-1-yl]carbamoyl}phenyl)-sulphonyl]amino}methyl)benzoate]	248%	40 nM	55%
